Laboratory results published in patent US5773236A, “Assay for glutathiane transferase using polyhaloaryl-substituted reporter molecules” (Molecule Probes, Inc., priority 1997, dated 1998).
Where a name gives a salt, the structure may show the parent alone.

What was measured:
[1] = test system: glutathione S-transferase; test: Other derivatives tested as GSH/GST substrates, TLC (Example 54); type: biochemical; details: 0.2-0.5 mM compound in 50 mM MOPS, pH 7.5, TLC
Experimental: The reaction is then stopped by adding 10% H2 O2.
The PHA compound (ethanol stock solution, 2 mM) and reduced glutathione (phosphate buffer stock solution, 5 mM) are incubated under the same conditions as described above without addition of glutathione S-transferase.
Commercial precast silica gel TLC plates are used to follow both the enzymatic reaction and the blank control reaction. […] UV absorbance by the PHA substituent always permits detection of both the compound and any glutathione adduct by fluorescence quenching when the TLC sheet is illuminated with 254-nm radiation. Fluorescent compounds can be directly detected using appropriate UV or visible illumination. […] Furthermore, the intensity of the signal on the TLC sheet often can be enhanced by methods well known in the art, such as by application of a phosphomolybdate spray, iodine vapors or a similar detection reagent. Radioactive products can be directly detected and quantitated by exposure to a suitable film using methods well known in the art.

3T3 or BPAE cells [2] = test: Intracellular products of tracers by gel electrophoresis (Example 67); type: cell-based; details: 5 μM, 1 hr, 37° C.
Experimental: (§1) Cultures of either 3T3 or BPAE cells are treated with 5 μM solutions of either Compound 4,5-(pentachlorobenzoylamino)fluorescein diacetate, 5-pentafluorobenzenesulfonylamino)fluorescein diacetate, or 5-chloromethylfluorescein diacetate (CMFDA, Molecular Probes, Inc.) for 1 hr at 37° C. The cells are spun, resuspended in distilled water and lysed by repeated freezing and thawing. 20 μL of the cell lysate supernatant is diluted with 30 μL of SDS-PAGE sample buffer, containing β-mercaptoethanol. The cell pellets are dispersed in 50 μL of water. 20 μL of each sample is added to 30 μL of the same sample buffer. The samples are heated at 95° C. for 5 min. and loaded on 4-20% polyacrylamide gradient minigels. At the completion of the run the gels are observed with UV excitation.

3T3 or BPAE cells [3] = test: Intracellular products of tracers by TLC and HPLC (Example 67); type: cell-based; details: 5 μM, 1 hr, 37° C.
Experimental: Reaction mixtures with and without GST using Compound 1 as the substrate, are prepared as described in Example 48. The solutions are mixed overnight with three volumes of ethyl acetate followed by centrifugation at 15,000×g for 30 min to separate the organic and aqueous layers. HPLC analysis using a Rainin HPLC equipped with a C18, 5 μm, 100 Å, 4.6×250 mm MICROSORB-MV reverse phase column. Products are separated in 30 min with a gradient of 5% to 95% solvent B in Solvent A at a flow rate of 1 mL/min, where solvent A is 0.1M triethylammonium acetate, pH 7.0, and solvent B is acetonitrile (see FIG. 1). Products are detected by reading the absorbance at 500 nm. Peaks are identified and, if desired, quantitated by comparing retention times with authentic samples of the glutathione adduct of Compound 45 (Example 45).
as §1
Alternatively, the above samples are analyzed by TLC and by HPLC, as described in Examples 48 and 52. […] Coinjection with authentic Compound 1 confirms the identity of the substrate peak and coinjection with the authentic Compound 1-GSH adduct (Example 45) confirms the identify of the other fluorescent product.

alkaline phosphatase = test: Detection of alkaline phosphatase on a membrane blot (Example 63); type: biochemical; details: nitrocellulose
Experimental: The reagents used are: 1) 5-(pentafluorobenzoylamino)fluorescein diphosphate, tetraammonium salt (Compound 47; Example 47), 10 mM in 0.1M Tris, pH 8.5; 2) fluorescein diphosphate (FDP; Molecular Probes, #F-2999), 10 mM in 0.1M Tris, pH 8.5; 3) BLOCKER Blotto in PBS (Pierce Chemical Company); 4) 0.2M glycine, pH 8.8; 5) 0.05M MgCl2, 6) 0.1M Tris, pH 8.5; 7) wash buffer: 20 mM Tris, 137 mM NaCl, 0.5% TWEEN 20, pH 7.5. Stock solutions of alkaline phosphatase are diluted in 0.1M Tris, pH 8.5 to obtain solutions with the following concentrations: 1 μg/μL, 0.5 μg/μL, 0.25 μg/μL, 0.1 μg/μL, 50 ng/μL, 10 ng/μL, 1 ng/μL and 0 ng/μL. 1 μL of each diluted solution is spotted on a nitrocellulose membrane (1"×1"), pore size 0.45 μM, and allowed to dry overnight at room temperature. Blocking is done by treating both nitrocellulose blots with 2 mL of supernatant liquid from the BLOCKER Blotto solution for 30 minutes at room temperature. The following mixture is prepared: 1.5 mL of 0.2M glycine, pH 8.8+0.4 mL of 0.05M MgCl2 +100 μL of 0.1M Tris, pH 8.5+10 μL of 10 mM substrate stock solution (either PFB-FDP or FDP). Blotto supernatant on the blots is replaced with the above mixture and incubation is carried out for 35 minutes at 37° C. A Polaroid image of the blots is obtained by illuminating with reflected UV light at 254 nm. Exposure time is 5-10 sec with an aperture setting of F=4.5 and filter #15 is used to block unwanted light. Both Compound 47 and FDP can detect ~50 ng of the enzyme prior to washing the membranes. The blots are washed twice for 5 minutes each time with 2 mL of wash buffer and an image is obtained using the same settings and exposure times as described above.

[4] = test system: Bovine pulmonary aorta endothelial cells (BPAEC); test: Glutathione adduct formation and fate of substrate in cultured animal cells, HPLC (Example 66); type: cell-based; details: BPAEC, up to 4 hours
Experimental: The solutions are mixed overnight with three volumes of ethyl acetate followed by centrifugation at 15,000×g for 30 min to separate the organic and aqueous layers. HPLC analysis using a Rainin HPLC equipped with a C18, 5 μm, 100 Å, 4.6×250 mm MICROSORB-MV reverse phase column. […] Products are detected by reading the absorbance at 500 nm.
Bovine pulmonary aorta endothelial cells (BPAEC) are removed from flasks by trypsinization and washed into fresh complete growth medium to yield 10^6 cells/mL. […] Other aliquots of the cell suspension are loaded with the same substrates for 1 hour, rinsed into fresh complete medium, then incubated in the absence of substrate for an additional 3 hr at 37° C. to look for retention and efflux of fluorescent products. At the end of each incubation period the cells are removed by centrifugation and the supernate is retained. The cell pellets are resuspended in 1 mL of E-Pure water and subjected to three freeze-thaw cycles (-80° C. to 37° C.).

Compound	glutathione adducts detected [1]	other results
O=C(c1c(F)c(F)c(F)c(F)c1F)c1cc2ccc(O)cc2oc1=O [7-hydroxy-3-(pentafluorobenzoyl)coumarin]	detectable glutathione adducts	
O=c1cc(-c2c(F)c(F)c(F)c(F)c2F)c2ccc(O)cc2o1 [Compound 44, 7-hydroxy-4-pentafluorophenylcoumarin]	detectable glutathione adducts	
CC(=O)Oc1ccc2c(c1)Oc1cc(OC(C)=O)ccc1C21OC(=O)c2cc(CCl)ccc21 [CMFDA, 5-chloromethylfluorescein diacetate, reference compound]		protein adduct bands on gel (3T3 or BPAE cells [2]): multiple fluorescent bands; products by HPLC (3T3 or BPAE cells [3]; HPLC): the glutathione adduct and additional small peaks; products by TLC (3T3 or BPAE cells [3]): multiple TLC bands
NCCNC(=O)c1c(F)c(F)c(F)c(F)c1F [Compound 31, ((2-(pentafluorobenzoyl)amino)ethyl)ammonium trifluoroacetate]	detectable glutathione adducts	
O=C(Nc1ccc2c(c1)C(=O)OC21c2ccc(O)cc2Oc2cc(O)ccc21)c1cc(F)c(F)c(F)c1 [Compound 26, 5-(3',4',5'-trifluorobenzoylamino)fluorescein]	detectable glutathione adducts	
O=C(c1c(F)c(F)c(F)c(F)c1F)N1CCN(C(=O)c2c3oc4cc(O)c(Cl)cc4nc-3ccc2=O)CC1 [Compound 17]	detectable glutathione adducts	
O=C1OC2(c3ccc(O)cc3Oc3cc(O)ccc32)c2ccc(N3C(=O)c4c(F)c(F)c(F)c(F)c4C3=O)cc21 [Compound 28, 5-tetrafluorophthalimidylfluorescein]	detectable glutathione adducts	
CCN(CC)c1ccc2c(CNC(=O)c3c(F)c(F)c(F)c(F)c3F)cc(=O)oc2c1 [Compound 29, 7-diethylamino-4-(((Pentafluorobenzoyl)amino)methyl)coumarin]	detectable glutathione adducts	
O=C1OC2(c3ccc(OP(=O)(O)O)cc3Oc3cc(OP(=O)(O)O)ccc32)c2ccc(NC(=O)c3c(F)c(F)c(F)c(F)c3F)cc21 [Compound 47, 5-(pentafluorobenzoylamino)fluorescein diphosphate, tetraammonium salt]		amount of enzyme detected, before washing (alkaline phosphatase; 35 minutes, 37° C., prior to washing the membranes): ~ 50 ng; amount of enzyme detected, after washing (alkaline phosphatase; washed twice for 5 minutes, per spot): ~ 50 ng
O=C(c1c(F)c(F)c(F)c(F)c1F)c1cc2cc(F)c(O)c(F)c2oc1=O [Compound 42, 6,8-difluoro-7-hydroxy-3-pentafluorobenzoylcoumarin]	detectable glutathione adducts	
O=c1oc2cc(O)ccc2cc1-c1c(F)c(F)c(F)c(F)c1F [Compound 41, 7-hydroxy-3-pentafluorophenylcoumarin]	detectable glutathione adducts	
Cc1cc(C)n2c1C=C1C=CC(CCC(=O)NCCNC(=O)c3c(F)c(F)c(F)c(F)c3F)=[N+]1[B-]2(F)F [Compound 30]	detectable glutathione adducts	
CC(=O)Oc1ccc2c(c1)Oc1cc(OC(C)=O)ccc1C21OC(=O)c2cc(NC(=O)c3c(Cl)c(Cl)c(Cl)c(Cl)c3Cl)ccc21 [5-(pentachlorobenzoylamino)fluorescein diacetate]		fluorescent bands on gel (region of the tracking dye) (3T3 or BPAE cells [2]): a single band in the region of the tracking dye; protein adduct bands on gel (3T3 or BPAE cells [2]): do not shown a protein adduct; products by TLC (3T3 or BPAE cells [3]): Only a single, fast-moving fluorescent band corresponding to authentic 5-(pentachlorobenzoylamino)fluorescein
CN(C)c1ccc2c(c1)Oc1cc(N(C)C)ccc1C21OC(=O)c2cc(NC(=O)c3c(F)c(F)c(F)c(F)c3F)ccc21 [Compound 25, 5-(pentafluorobenzoylamino)tetramethylrhodamine]	detectable glutathione adducts	
O=C(c1c(F)c(F)c(F)c(F)c1F)N1CCN(C(=O)c2c3oc4cc(O[C@@H]5O[C@H](CO)[C@H](O)[C@H](O)[C@H]5O)c(Cl)cc4nc-3ccc2=O)CC1 [Compound 22, 8-chloro-3,7-dihydroxy-4-(4-pentafluorobenzoyl-1-piperazinecarbonyl)phenoxazine β-D-galactopyranoside]	detectable glutathione adducts	
O=C(NCCNC(=O)c1cc2ccc(O)cc2oc1=O)c1c(F)c(F)c(F)c(F)c1F [Compound 32, 7-hydroxy-3-((((2-(pentafluorobenzoyl)amino)ethyl)amino)carbonyl)coumarin]	detectable glutathione adducts	
N[C@@H](CCC(=O)N[C@@H](CSc1c(F)c(F)c(C(=O)Nc2ccc3c(c2)C(=O)OC32c3ccc(O)cc3Oc3cc(O)ccc32)c(F)c1F)C(=O)NCC(=O)O)C(=O)O [Compound 45, 5-(4'-(S-glutathionyl))-(2',3', 5',6'-tetrafluorobenzoylamino)fluorescein]		retention of GSH adduct / fluorescence labeling in cells [4]: rapidly removed from the cytoplasm of these BPAEC cells but a fraction of the fluorescence labeling is retained, even after 4 hours
O=C1OC2(c3ccc(O)cc3Oc3cc(O)ccc32)c2ccc(NC(=O)c3c(F)c(F)c(F)c(F)c3C(=O)O)cc21 [Compound 27, 5-(2'-carboxy-3',4',5',6'-tetrafluorobenzoylamino)fluorescein]	detectable glutathione adducts	
CN(C)c1ccc2c(CC(=O)NCCNC(=O)c3c(F)c(F)c(F)c(F)c3F)cc(=O)oc2c1 [Compound 40, 7-dimethylamino-4-(((((2-(pentafluorobenzoyl)amino)ethyl)amino)carbonyl)methyl)coumarin]	detectable glutathione adducts	
O=c1[nH][nH]c(=O)c2c(F)c(F)c(F)c(F)c12 [Compound 43, tetrafluorophthalhydrazide]	detectable glutathione adducts	
CC(=O)Oc1ccc2c(c1)Oc1cc(OC(C)=O)ccc1C21OC(=O)c2cc(NS(=O)(=O)c3c(F)c(F)c(F)c(F)c3F)ccc21 [5-pentafluorobenzenesulfonylamino)fluorescein diacetate]		fluorescent bands on gel (region of the tracking dye) (3T3 or BPAE cells [2]): Two closely spaced green fluorescent bands; protein adduct bands on gel (3T3 or BPAE cells [2]): No other band corresponding to proteins is visible; products by TLC (3T3 or BPAE cells [3]): formation of a GSH adduct
